The assay deals with plants under salt stress. Kind of assay: Root length under salt stress. The following applies: compared to +Na untreated plants. It counts as in vivo. An excerpt: The code numbers in FIG. 18 refer to different organic extracts.

Regarding `C/C=C(/CCC(C)C1CCC2C3CC=C4CC(O)CCC4(C)C3CCC12C)C(C)C` (stereo not shown) [fucosterol, 24-ethylidene cholesterol], the root length entry is “longer root length”.

Source of the values: US20110152099A1, “BIOACTIVE COMPOUNDS OF ASCOPHYLLUM NODOSUM AND THEIR USE FOR ALLEVIATING SALT-INDUCED STRESS IN PLANTS” (priority 2008, published 2011).
